Usually MIC stands for the lowest concentration that inhibits growth of the organism.

Values after ≈ are worked out from the molar mass of the structure shown. Where two headings read alike, the source gives them in different places.

Results on ten molecules are retold here after patent US10695314B2, “Antimicrobial composition containing 7,10-epoxyoctadeca-7,9-dienoic acid as active ingredient” (priority 2016, dated 2020).

Test [1] has as its system MDRSA 01ST001. As to the kind of experiment: Agar disk diffusion analysis, zone of inhibition (ZOI). It counts as cell-based, Staphylococcus aureus. The note with it: for ZOI without 7.10-EODA / ZOI with 7.10-EODA: strain 001; for ZOI without 7.10-EODA: antibiotic ½×MIC alone; for ZOI with 7.10-EODA: antibiotic ½×MIC with 7,10-EODA ¼×MIC; for antimicrobial activity, disk diffusion: 100 μg each, FIG. 4; for antimicrobial activity effect in combination with 7,10-EODA: antibiotic treated in combination with 7,10-EODA, Table 1 summary. Here is the method:
(§1) For synergy effect screening, a 0.1 mL aliquot of MRSA or MSSA strain (5×10^5 CFU/mL) cultured in a log-phase on TSA plates was inoculated. […] A disk including DMSO alone or 7,10-EODA alone (¼×MIC) was used as a control group. The plates were cultured under conditions of […] and 24 hours, and a synergistic effect was observed when the disk periphery including both antibiotic and 7,10-EODA was at least 5 mm in zone of inhibition (ZOI).
Specifically, in order to compare the antimicrobial activity of the 7,10-EODA or the antibiotic of the present invention against the MDRSA 01ST001 strain, the MDRSA 01ST001 strain was treated with the 7,10-EODA (E 100 μg) of the present invention, streptomycin (S, 100 μg), ampicillin (A, 100 μg), oxacillin (O, 100 μg), vancomycin (V, 100 μg), or penicillin (P, 100 μg), according to the method described in Experimental Example 5.
(§2) Specifically, the minimal inhibitory concentration (MIC) was measured according to the method of Experimental Example 4 above, and the degree of inhibition (Agar diffusion analysis) (zone of inhibition; ZOI) was measured according to the method of Experimental Example 5 above.
(In general: Agar diffusion results depend on both activity and mobility in agar.)

Test [2] relates to Staphylococcus aureus ATCC 29213. Description: Minimal inhibitory concentration (MIC), broth microdilution per CLSI. It counts as cell-based. The note with it: strain 29213 (ATCC 29213), antibiotic alone. Here is the method: The minimum inhibitory concentration (MIC) of antibiotics and the activity of 7,10-EODA of the present invention against Staphylococcus aureus strains were measured according to the CLSI guideline (CLSI document M100-517, 2007). Specifically, each antibiotic or 7,10-EODA was diluted 2-fold (200-0.97 μg/mL) by adding MHB (Mueller-Hinton Broth) to a 96-well microtiter plate. In the mid-exponential phase (0.5 OD600), the culture was diluted 10-fold with MHB and 0.1 mL aliquots of the diluent were added to wells containing the serially diluted test reagent and cultured at 37° C. for 12 hours. About the end of the culture period, the cell density was measured at an optical density of 600 nm (OD600) using a […].
as §2
A general note: Dilution methods test growth across graded concentrations, often in twofold steps.

The subject of test [3] is MDRSA 01ST001. Described as above.
The subject of test [4] is Staphylococcus aureus ATCC 29213. Description: Agar disk diffusion analysis, zone of inhibition (ZOI). It counts as cell-based. To be noted: strain 29213; for ZOI without 7.10-EODA: antibiotic ½×MIC alone; for ZOI with 7.10-EODA: antibiotic ½×MIC with 7,10-EODA ¼×MIC. Here is the method:
as §1, §2

Test [5] deals with MRSA 01ST001 (MDRSA 01ST001). Description: Antimicrobial activity on solid medium (clear zone around filter paper). It counts as cell-based, Staphylococcus aureus. The note with it: for clear zone on agar plate: 100 μg per filter paper, 37° C., 2 to 3 days, FIG. 1. Here is the method:
(§3) First, 1.5% of potato agar was added to the YDP medium, sterilized, and then an agar plate hardened by pouring about 20 ml in a plastic Petri dish was used. MRSA 01ST001 was diluted to about 107/ml, and then about 500 μl was dispersed evenly on the agar plate.
(§4) The size of the clear zone around the filter paper shown after the culture at 37° C. for 2 to 3 days after the inoculation was measured to confirm the degree of antimicrobial activity. At this time, vancomycin 100 μg, oxacillin 100 μg, ampicillin 100 μg, streptomycin 100 μg, and penicillin 100 μg were used as control groups.
(§5) The antimicrobial activity can be confirmed with the degree showing the clear zone on the agar plate. It is judged that the larger the clear zone, the higher the antimicrobial activity. The results are illustrated in FIG. 1 and FIG. 2.
(§6) The results are illustrated in FIG. 3. The experiment was carried out in the same manner as in Example 1-2.

Test [6] has as its system Staphylococcus aureus ATCC 29213. The test is described as above. The note with it: FIG. 3. It counts as cell-based. Here is the method:
as §3, §4, §5, §6

Where [7] appears, read: Staphylococcus aureus, ATCC29213, read-out: MIC.
Setting [8] is: strain 001 (MDRSA 01ST001), antibiotic alone.

For the molecule `CO[C@H]1/C=C/O[C@@]2(C)Oc3c(C)c(O)c4c(O)c(c(/C=N/N5CCN(C)CC5)c(O)c4c3C2=O)NC(=O)/C(C)=C\C=C\[C@H](C)[C@H](O)[C@@H](C)[C@@H](O)[C@@H](C)[C@H](OC(C)=O)[C@@H]1C` [RIF, rifampicin], the “ZOI without 7.10-EODA” value with MDRSA 01ST001 [1] came out at 18.3 ± 0.2 mm; in test [4], 21.0 ± 0.8 mm. For the same molecule, the “ZOI with 7.10-EODA” value in the test on MDRSA 01ST001 [1] is listed as 20.2 mm. Moreover, the MIC (in test [2] (setting [7]); against MDRSA 01ST001 [3] (Staphylococcus aureus)) was 5 µg/mL (≈ 6.08 µM) throughout.

In the case of `Oc1cc(Cl)ccc1Oc1ccc(Cl)cc1Cl` [IRG, irgasan], the “ZOI without 7.10-EODA” value with MDRSA 01ST001 [1] is given as 12.4 ± 0.3 mm; in test [4], 11.1 ± 0.5 mm. Also, the “ZOI with 7.10-EODA” value in the test on MDRSA 01ST001 [1] was found to be 13.8 mm; in test [4], 10.0 mm. For the same molecule, the MIC (in test [2]; in the test on MDRSA 01ST001 [3] (setting [8])) was 0.1 µg/mL (≈ 0.345 µM) in each case.

Consider `CN(C)CCCN1c2ccccc2Sc2ccc(Cl)cc21` [CPZ, chlorpromazine], for which the “ZOI without 7.10-EODA” value amounted to 7.2 ± 0.1 mm in the test on MDRSA 01ST001 [1] and 6.0 ± 0.0 mm in test [4]. For the same molecule, the “ZOI with 7.10-EODA” value in the test with MDRSA 01ST001 [1] is reported as 12.0 mm; in test [4], 8.05 mm. Also, the figures for the MIC (in test [2] (setting [7]); against MDRSA 01ST001 [3] (Staphylococcus aureus)) were 125 µg/mL (≈ 392 µM) and 62.5 µg/mL (≈ 196 µM), respectively.

On to `[H]/N=C(/N)N[C@H]1[C@H](O)[C@@H](O)[C@H](O[C@@H]2O[C@@H](C)[C@](O)(C=O)[C@H]2O[C@@H]2O[C@@H](CO)[C@H](O)[C@@H](O)[C@@H]2NC)[C@@H](N/C(N)=N\[H])[C@@H]1O` [STP, streptomycin], for which, in the test on MDRSA 01ST001 [1], the “antimicrobial activity, disk diffusion” value was “resistant”; the “antimicrobial activity effect in combination with 7,10-EODA” value (“antimicrobial activity effect” below) is “strong antimicrobial activity effect”; the “ZOI without 7.10-EODA” value is given as 6.0 ± 0.0 mm; the “ZOI with 7.10-EODA” value came out at 12.9 mm. The MIC in test [2] (setting [7]) was 3 µg/mL (≈ 5.16 µM). In the test on MDRSA 01ST001 [3] (Staphylococcus aureus), this molecule registered an MIC of 62.5 µg/mL (≈ 107 µM). In addition, the “clear zone on agar plate” value in test [5] was “no clear zone appeared”. Moreover, in test [4], the “ZOI without 7.10-EODA” value is given as 6.0 ± 0.0 mm and the “ZOI with 7.10-EODA” value came out at 11.4 mm.

Regarding penicillin, the “antimicrobial activity, disk diffusion” value in the test with MDRSA 01ST001 [1] is reported as “resistant”. In addition, the “antimicrobial activity effect” value in the test with MDRSA 01ST001 [1] is listed as “strong antimicrobial activity effect”. For the same molecule, the “ZOI without 7.10-EODA” value is given as 7.1 ± 0.1 mm in the test with MDRSA 01ST001 [1] and 12.9 ± 0.4 mm in test [4]. Moreover, the “ZOI with 7.10-EODA” value in the test with MDRSA 01ST001 [1] is on record as 13.6 mm; in test [4], 13.2 mm. Also, the MIC in test [2] worked out at 0.5 µg/mL; in the test on MDRSA 01ST001 [3] (setting [8]), 1000.0 µg/mL. Moreover, the entries for the “degree of decrease of the MIC90 value of penicillin versus no 7,10-EODA” value in the test on MDRSA 01ST001 [3] (7,10-EODA at 1/16 of its original MIC90) and in the test on MDRSA 01ST001 [3] (7,10-EODA at ⅛ of its original MIC90) were 1/32 and “¼”, respectively. Besides, the “MIC90 value of penicillin” value with MDRSA 01ST001 [3] (7,10-EODA not used in combination, OD600) was found to be 350 µg/mL; in the test with MDRSA 01ST001 [3] (in combination with 7.5 μg/mL 7,10-EODA (1/16 of its MIC90)), 87.5 µg/mL; in the test with MDRSA 01ST001 [3] (in combination with 15.0 μg/mL 7,10-EODA (⅛ of its MIC90)), 10.9 µg/mL. In addition, the “clear zone on agar plate” value in test [5] is given as “no clear zone appeared”.

As for `CN[C@H](CC(C)C)C(=O)N[C@H]1C(=O)N[C@@H](CC(N)=O)C(=O)N[C@H]2C(=O)N[C@H]3C(=O)N[C@H](C(=O)N[C@H](C(=O)O)c4cc(O)cc(O)c4-c4cc3ccc4O)[C@H](O)c3ccc(c(Cl)c3)Oc3cc2cc(c3O[C@@H]2O[C@H](CO)[C@@H](O)[C@H](O)[C@H]2O[C@H]2C[C@](C)(N)[C@H](O)[C@H](C)O2)Oc2ccc(cc2Cl)[C@H]1O` [vancomycin], the “antimicrobial activity on solid medium” value in test [6] is listed as “same antimicrobial activity”; in test [5] (MDRSA 01ST001, FIG. 3), “same antimicrobial activity”. Besides, the “clear zone on agar plate” value in test [5] was “clear zone appeared”.

On to `O=C(O)c1cn(C2CC2)c2cc(N3CCNCC3)c(F)cc2c1=O` [CIP, ciprofloxacin], for which, in the test with MDRSA 01ST001 [1], the “antimicrobial activity effect” value is on record as “strong antimicrobial activity effect”, the “ZOI without 7.10-EODA” value is 6.0 ± 0.0 mm and the “ZOI with 7.10-EODA” value was determined as 13.2 mm. Also, in test [4], the “ZOI without 7.10-EODA” value came to 9.6 ± 0.2 mm and the “ZOI with 7.10-EODA” value is recorded as 13.2 mm.

For `CC1=C(C(=O)O)N2C(=O)[C@@H](NC(=O)[C@H](N)c3ccccc3)[C@H]2SC1` [CEP, cephalexin], the “ZOI without 7.10-EODA” value was 10.1 ± 1.3 mm with MDRSA 01ST001 [1] and 15.3 ± 0.1 mm in test [4]. The “ZOI with 7.10-EODA” value in the test on MDRSA 01ST001 [1] is listed as 13.1 mm; in test [4], 15.3 mm. Besides, the values for the MIC (in test [2] (setting [7]); with MDRSA 01ST001 [3] (Staphylococcus aureus)) were 1.97 µg/mL (≈ 5.67 µM) and 1000 µg/mL (≈ 2880 µM), respectively.

Consider `COc1cc(Cc2cnc(N)nc2N)cc(OC)c1OC` [TMP, trimethoprim], for which the entries for the “ZOI without 7.10-EODA” value (with MDRSA 01ST001 [1]; in test [4]) were 6.0 ± 0.0 mm and 8.9 ± 0.1 mm, respectively. The results for the “ZOI with 7.10-EODA” value (in the test on MDRSA 01ST001 [1]; in test [4]) were 6.00 mm and 12.3 mm, respectively. Further, the MIC (in test [2] (setting [7]); against MDRSA 01ST001 [3] (Staphylococcus aureus)) was 7.8 µg/mL (≈ 26.9 µM) throughout.

With `O=C(N[C@H](CO)[C@H](O)c1ccc([N+](=O)[O-])cc1)C(Cl)Cl` [CPL, chloramphenicol], the “ZOI without 7.10-EODA” value was found to be 13.2 ± 0.4 mm with MDRSA 01ST001 [1] and 7.4 ± 0.2 mm in test [4]. In addition, the “ZOI with 7.10-EODA” value worked out at 13.9 mm in the test with MDRSA 01ST001 [1] and 7.21 mm in test [4]. The minimal inhibitory concentration (MIC) (in test [2] (setting [7]); against MDRSA 01ST001 [3] (Staphylococcus aureus)) was 10 µg/mL (≈ 30.9 µM) in each case.
